Results on nine compounds are retold here after patent US11866518B2, “Bicyclic peptide ligands specific for TSLP” (BicycleTx Limited, priority 2020, dated 2024).

Each structure is given as a SMILES string. *1 amine or outer side, *2 acyl side, *3 side chain or, on linkers, in order; H or OH if unused. Where a SMILES comes first, the peptide text is derived from it. Bridges are numbered along the chain shown (N, C = ends). [ ]: non-standard residue; d: D form. TATA = O=C(CC[*:1])N1CN(C(=O)CC[*:2])CN(C(=O)CC[*:3])C1; Dap = NC[C@H](N)C(=O)O

Sequence of TSLP (Q969D9 29-159): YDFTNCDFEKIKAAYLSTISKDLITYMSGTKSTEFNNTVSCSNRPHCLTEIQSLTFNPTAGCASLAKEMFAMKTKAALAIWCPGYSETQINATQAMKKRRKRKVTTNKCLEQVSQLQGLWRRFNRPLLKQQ

This test addresses TSLP (Homo sapiens, UniProt Q969D9). Kind of test: Human TSLP Surface Plasmon Resonance (SPR) binding assay. Details: The resulting construct spCD33-6×HN-TEV-hTSLP(29-159)-Avi; 6xHN tag with TEV site (N, cleaved yes); made in house; host or cells: Expi293F cells. The following applies: biotinylated human TSLP immobilized on streptavidin chip; 20° C.; steady-state or kinetic 1:1 fit; read-out: hTSLP SPR Kd.
With `CC(=O)N[C@H]1CSCCC(=O)N2CN3CN(C2)C(=O)CCSC[C@H](NC(=O)[C@H](CC(N)=O)NC(=O)[C@H](CCC(=O)O)NC(=O)[C@H](CC(C)C)NC(=O)[C@H](Cc2c[nH]c4ccccc24)NC(=O)[C@H](Cc2c[nH]cn2)NC1=O)C(=O)N[C@@H](Cc1c[nH]c2ccccc12)C(=O)N[C@@H](CN)C(=O)NCC(=O)N[C@@H](Cc1ccccc1)C(=O)N[C@H](C(N)=O)CSCCC3=O` [Example 159, Ac-(SEQ ID NO: 117)] (Ac-CHWLENCW[Dap]GFC-NH2; linker 1-7-12 via TATA; C-terminus assumed), the Kd was found to be 5600 nM.
For the compound `CC(C)C[C@@H]1NC(=O)[C@H](CO)NC(=O)[C@H](CCC(=O)O)NC(=O)[C@@H](NC(=O)[C@H](C)N)CSCCC(=O)N2CN3CN(C2)C(=O)CCSC[C@H](NC(=O)[C@H](CO)NC(=O)[C@H](Cc2c[nH]c4ccccc24)NC(=O)[C@@H]2CCCN2C(=O)[C@H](CC(=O)O)NC1=O)C(=O)N1CCC[C@H]1C(=O)N[C@@H](C(C)C)C(=O)N[C@@H](Cc1c[nH]c2ccccc12)C(=O)N[C@@H](Cc1c[nH]c2ccccc12)C(=O)N[C@@H](CCCNC(=N)N)C(=O)N[C@H](C(=O)N[C@@H](C)C(N)=O)CSCCC3=O` [Example 161, A-(SEQ ID NO: 119)-A] (H-ACESLDPWSCPVWWRCA-NH2; linker 2-10-16 via TATA; N-terminus and C-terminus assumed), the Kd turned out to be 890 nM.
Then `CC(C)C[C@@H]1NC(=O)[C@H](CO)NC(=O)[C@@H]2CCCN2C(=O)[C@@H](NC(=O)[C@H](C)N)CSCCC(=O)N2CN3CN(C2)C(=O)CCSC[C@H](NC(=O)[C@H]([C@@H](C)O)NC(=O)[C@H](Cc2c[nH]c4ccccc24)NC(=O)[C@@H]2CCCN2C(=O)[C@H](CC(=O)O)NC1=O)C(=O)N[C@@H](CCC(N)=O)C(=O)N[C@@H](CO)C(=O)N[C@@H](Cc1c[nH]c2ccccc12)C(=O)N[C@@H](Cc1ccc(O)cc1)C(=O)N[C@@H](CCC(=O)O)C(=O)N[C@H](C(=O)N[C@@H](C)C(N)=O)CSCCC3=O` [Example 162, A-(SEQ ID NO: 120)-A], with 1500 nM; and `CC(C)C[C@@H]1NC(=O)[C@H](CC(=O)O)NC(=O)[C@H](CCCCN)NC(=O)[C@@H](NC(=O)[C@H](C)N)CSCCC(=O)N2CN3CN(C2)C(=O)CCSC[C@H](NC(=O)[C@H]([C@@H](C)O)NC(=O)[C@H](Cc2c[nH]c4ccccc24)NC(=O)[C@@H]2CCCN2C(=O)[C@H](CC(=O)O)NC1=O)C(=O)N[C@@H](CO)C(=O)N[C@@H](CO)C(=O)N[C@@H](Cc1c[nH]c2ccccc12)C(=O)N[C@@H](Cc1c[nH]c2ccccc12)C(=O)N[C@@H](CCC(=O)O)C(=O)N[C@H](C(=O)N[C@@H](C)C(=O)N1CCC[C@H]1C(=O)N[C@@H](CC(N)=O)C(N)=O)CSCCC3=O` [Example 167, A-(SEQ ID NO: 125)-APN] (H-ACKDLDPWTCSSWWECAPN-NH2; linker 2-10-16 via TATA; N-terminus assumed), with 170 nM.
Regarding `CC(C)C[C@@H]1NC(=O)[C@H](Cc2c[nH]c3ccccc23)NC(=O)[C@H](Cc2c[nH]c3ccccc23)NC(=O)[C@H](CCC(=O)O)NC(=O)[C@H](CCC(=O)O)NC(=O)[C@@H]2CSCCC(=O)N3CN(CN(C3)C(=O)CCSC[C@@H](C(=O)N[C@@H](C)C(=O)N[C@@H](Cc3c[nH]cn3)C(=O)N3CCC[C@H]3C(N)=O)NC1=O)C(=O)CCSC[C@H](NC(=O)[C@H](C)N)C(=O)N[C@@H](CCCNC(=N)N)C(=O)N[C@@H](CC(=O)O)C(=O)N[C@@H](CC(C)C)C(=O)N[C@@H](CC(=O)O)C(=O)N1CCC[C@H]1C(=O)N[C@@H](Cc1c[nH]c3ccccc13)C(=O)N[C@@H]([C@@H](C)O)C(=O)N2` [Example 170, A-(SEQ ID NO: 128)-AHP] (H-ACRDLDPWTCEEWWLCAHP-NH2; linker 2-10-16 via TATA; N-terminus and C-terminus assumed), the dissociation constant (Kd) is 170 nM.
Turning to `CC(C)C[C@@H]1NC(=O)[C@H](Cc2c[nH]c3ccccc23)NC(=O)[C@H](Cc2c[nH]c3ccccc23)NC(=O)[C@H](CO)NC(=O)[C@H](CO)NC(=O)[C@@H]2CSCCC(=O)N3CN(CN(C3)C(=O)CCSC[C@H](NC(=O)[C@@H](NC(=O)[C@H](CC(=O)O)NC(=O)[C@H](CCCNC(=N)N)NC(=O)[C@H](CCC(N)=O)NC(=O)[C@H](Cc3ccc(O)cc3)NC(=O)[C@@H](N)CCC(=O)O)C(C)C)C(=O)N[C@@H](CCCNC(=N)N)C(=O)N[C@@H](CC(=O)O)C(=O)N[C@@H](CC(C)C)C(=O)N[C@@H](CC(=O)O)C(=O)N3CCC[C@H]3C(=O)N[C@@H](Cc3c[nH]c4ccccc34)C(=O)N[C@@H]([C@@H](C)O)C(=O)N2)C(=O)CCSC[C@@H](C(=O)N[C@@H](C)C(N)=O)NC1=O` [Example 173, EYQRDV-(SEQ ID NO: 122)-A], the dissociation constant Kd was 77 nM.
In the case of `CC(C)C[C@@H]1NC(=O)[C@H](Cc2c[nH]c3ccccc23)NC(=O)[C@H](Cc2c[nH]c3ccccc23)NC(=O)[C@H](CO)NC(=O)[C@H](CO)NC(=O)[C@@H]2CSCCC(=O)N3CN(CN(C3)C(=O)CCSC[C@@H](C(=O)N[C@@H](CO)C(=O)N[C@@H](CCC(=O)O)C(=O)N[C@@H](CO)C(=O)N[C@H](C(=O)N[C@@H](Cc3c[nH]cn3)C(=O)N[C@H](C(=O)N[C@@H](C)C(N)=O)[C@@H](C)O)C(C)C)NC1=O)C(=O)CCSC[C@H](NC(=O)[C@H](C)N)C(=O)N[C@@H](CCCNC(=N)N)C(=O)N[C@@H](CC(=O)O)C(=O)N[C@@H](CC(C)C)C(=O)N[C@@H](CC(=O)O)C(=O)N1CCC[C@H]1C(=O)N[C@@H](Cc1c[nH]c3ccccc13)C(=O)N[C@@H]([C@@H](C)O)C(=O)N2` [Example 175, A-(SEQ ID NO: 122)-SESVHTA], the Kd stood at 240 nM.
Then `CC(C)C[C@@H]1NC(=O)[C@H](Cc2c[nH]c3ccccc23)NC(=O)[C@H](Cc2c[nH]c3ccccc23)NC(=O)[C@H](CO)NC(=O)[C@H](CO)NC(=O)[C@@H]2CSCCC(=O)N3CN(CN(C3)C(=O)CCSC[C@@H](C(=O)N[C@@H](CCCCN)C(=O)N3CCC[C@H]3C(=O)N[C@@H](CC(=O)O)C(=O)N[C@@H](Cc3c[nH]cn3)C(=O)N[C@H](C(=O)N[C@@H](CC(=O)O)C(=O)N[C@@H](C)C(N)=O)C(C)C)NC1=O)C(=O)CCSC[C@H](NC(=O)[C@H](C)N)C(=O)N[C@@H](CCCNC(=N)N)C(=O)N[C@@H](CC(=O)O)C(=O)N[C@@H](CC(C)C)C(=O)N[C@@H](CC(=O)O)C(=O)N1CCC[C@H]1C(=O)N[C@@H](Cc1c[nH]c3ccccc13)C(=O)N[C@@H]([C@@H](C)O)C(=O)N2` [Example 177, A-(SEQ ID NO: 122)-KPDHVDA], with 580 nM.
For the compound `CC(C)C[C@@H]1NC(=O)[C@H](Cc2c[nH]c3ccccc23)NC(=O)[C@H](Cc2c[nH]c3ccccc23)NC(=O)[C@H]([C@@H](C)O)NC(=O)[C@H](CCC(=O)O)NC(=O)[C@@H]2CSCCC(=O)N3CN(CN(C3)C(=O)CCSC[C@H](N)C(=O)N[C@@H](CCCCN)C(=O)N[C@@H](CCC(=O)O)C(=O)N[C@@H](CC(C)C)C(=O)N[C@@H](CC(=O)O)C(=O)N3CCC[C@H]3C(=O)N[C@@H](Cc3c[nH]c4ccccc34)C(=O)N[C@@H]([C@@H](C)O)C(=O)N2)C(=O)CCSC[C@@H](C(N)=O)NC1=O` [Example 179, (SEQ ID NO: 130)] (H-CKELDPWTCETWWLC-NH2; linker 1-9-15 via TATA), the dissociation constant (Kd) is 360 nM.
